{
  "source": "paper PMC3563715",
  "about": "(Molecular pharmaceutics, 2013)",
  "key": {"[1]": {"conditions": "cited from earlier work"}, "[2]": {"test_system": "collagen induced arthritis (CIA)", "experiment": "Efficacy against collagen induced arthritis, subcutaneous treatment", "assay_type": "in vivo, DBA/1J mice", "conditions": "5.0 nmol/animal SC on day 22 and 34; between days 34 and 40"}, "[3]": {"test_system": "collagen induced arthritis (CIA)", "assay_type": "in vivo, DBA/1J mice", "conditions": "single IV dose on day 22, observed to day 58, 6 mice/group"}, "[4]": {"test_system": "systemic arterial pressure", "experiment": "Systemic arterial pressure", "assay_type": "in vivo, CIA mice", "conditions": "single IV injection, regardless of dose"}},
  "note": "Where two headings read alike, the source gives them in different places.",
  "data": [
    {"substance": "Vasoactive intestinal peptide [free VIP]", "values": [
      {"measurement": "in vivo half-life", "setting": "[1]", "result": "few minutes"},
      {"measurement": "duration of disease suppression after cessation of treatment", "setting": "[2]", "result": "about a week"},
      {"measurement": "paw thickness and clinical arthritis score", "setting": "[3]; 0.5 nmol/animal", "result": "did not show any therapeutic efficacy"},
      {"measurement": "paw thickness and clinical arthritis score", "setting": "[3]; 1.0 nmol/animal", "result": "did not show any therapeutic efficacy"},
      {"measurement": "time to full recovery of SAP to the norm", "setting": "[4]", "result": "approximately one hour"}
    ]}
  ]
}
